This test relates to HaCaT cells. The experiment in a line: Western blot of SUV-induced TOPK downstream signaling. It is filed as cell-based, human. How it is done:
The cells were cultured, treated for 4 h with different concentrations of compound 1 and then exposed to SUV (60 kJ UVA/m^2 and 2.9 kJ UVB/m^2), followed by an additional 15-minute incubation. Cells were harvested and the levels of phosphorylated and total proteins were determined by Western blot analysis with specific antibodies as indicated. […] The cells were cultured and treated with different concentrations of compound 1 for 24 h. Cells were harvested and the levels of phosphorylated and total proteins were determined by Western blot analysis with specific antibodies as indicated. […] For the luciferase assay, JB6 P+ cells stably transfected with an AP-1 luciferase reporter plasmid were cultured. After starvation for 24 h, cells were treated for 1 h with compound 1 (0, 1.25, 2.5, or 5 μM). Cells were then exposed to SUV (60 kJ UVA/m^2 and 2.9 kJ UVB/m^2) and harvested 3 h later. Luciferase activity was measured and AP-1 activity is expressed relative to control cells without SUV treatment. […] Knockdown of TOPK in A431 cell line (left). Stable control or TOPK knockdown cells were co-transfected with 100 ng of the AP-1 luciferase reporter plasmid and 50 ng of internal control […] plasmid. Cells were transfected using iMFectin poly DNA transfection reagent (GenDEPOT) according to the manufacturer's instructions. After 12 h of transfection, cells were incubated with the different concentrations of compound 1 for another 24 h. Luciferase and […] activities were measured using reagents included in the reporter assay system (right). Data are shown as mean values±S.D obtained from triplicate experiments. Significant differences were evaluated using one-way ANOVA and the asterisks (*) indicate a significant effect (*, p<0.05; **, p<0.001; ***, p<0.0001). […]
HaCaT or JB6 P+ cells (1×10^6) were cultured in 10-cm dishes for 24 h and then the medium was replaced with 0.1% FBS medium for 24 h. […] Protein concentration in cell lysates was determined using a protein assay kit (Bio-Rad Laboratories, Hercules, Calif.). […]
Background: In western blotting, separated proteins are transferred to a membrane and probed.

1 compound from patent US10487054B2, “Therapeutic compounds” (REGENTS OF THE UNIVERSITY OF MINNESOTA, priority 2017, dated 2019) can be followed below.

Molecules are shown by their SMILES.

For the compound `O=C1Nc2ccc(C34CC5CC(CC(C5)C3)C4)cc2C1=NO` [compound 1, 5-(adamantan-1-yl)-3-(hydroxyimino)indolin-2-one], the “phosphorylated c-Jun protein levels” value (HaCaT cells exposed to SUV) is recorded as “significantly suppressed”. Moreover, the “phosphorylation of ERK1/2, p38, and JNKs” value (HaCaT cells, 4 h treatment then SUV (60 kJ UVA/m2 and 2.9 kJ UVB/m2)) is “markedly suppressed”. The “phosphorylated and total TOPK protein levels” value (Western blot, cell lines not specified in the sentence (FIG. 3A, 3B)) is “no significant changes”.
